Data as given in PubChem BioAssay AID1845206 (Molecular Pharmacology Branch, DTP, NCI, 2023).
Several values for one entry are separate records, joined by “and”; a condition that tells them apart may be missing. Equal values may be shown once. Activity calls are given as the source filed them. The calls were made as follows: active = viability on the fitted dose curve at most 10% of control; inactive = the rest.

System: NCI-H1618 multicellular tumor spheroid viability
Experiment: Anticancer human tumor NCI-H1618 cell line growth inhibition;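 also: spheroids exposed to agents for 7 days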
Details: for viability, T/C: stronger effect = lower value
Description: Multicellular complex tumor spheroid response to DNA repair inhibitors in combination with DNA-damaging drugs
This study explores the anticancer activities of DNA-damaging drugs and inhibitors of DNA damage repair, both as single agents and in combinations. Complex tumor spheroids comprised of malignant cells, endothelial cells and mesenchymal stem cells served as an in vitro model for human solid tumors. This model system incorporates physiologically relevant features and patient-derived or established malignant cell lines with clinically relevant genetic alterations from many tumor types. Twenty-six patient-derived or established malignant cell lines were evaluated representing sarcoma, melanoma, small cell lung cancer (SCLC), non-small cell lung cancer (NSCLC), as well as bladder, ovarian and pancreatic cancers. The concentration ranges selected for each drug and investigational agent were based upon clinically achievable concentrations if the clinical Cmax of the agent was known.
Compounds. The drugs and compounds olaparib (NSC753686), talazoparib (NSC767125), berzosertib (NSC777718), elimusertib (NSC800525), nedisertib (NSC802822), VX-984 (NSC792969), AZD-1390 (NSC803789), temozolomide (NSC362856), topotecan (NSC609699), trabectedin (NSC813783), staurosporine (NSC755774), and gemcitabine (NSC613327) were obtained from the National Cancer Institute (NCI) Developmental Therapeutics Program Chemical Repository. The FDA-approved anticancer drug set is available from the Developmental Therapeutics Program at https://dtp.cancer.gov/organization/dscb/obtaining/available_plates.htm. […] The stock solutions were prepared in dimethyl sulfoxide (DMSO, Sigma-Aldrich, St. Louis, MO, cat. D2650) at 400-fold the tested concentration and stored at -70 degrees C. Prior to their use, the stock solutions were diluted in fresh medium and the final DMSO concentration in the assay was 0.25% (v/v). All drugs and investigational agents were tested over a range starting from a high concentration at or near the clinical Cmax and decreasing in half-log increments. If the clinical Cmax for an agent had not been determined, the highest concentration tested was 10 microM.
Cell Lines. The patient-derived cancer cell (PDC) lines: 156681-154-R-J1-PDC, 283228-195-R-J1-PDC, 287954-098-R-J1-PDC, 292921-168-R-J2-PDC, 349418-098-R-PDC, 425362-245-T-J1-PDC, 556581-035-R-J1-PDC, and BL0293-F563-PDC were received from the NCI Patient-Derived Models Repository (PDMR, https://pdmr.cancer.gov). The established cell lines HS-SY-2 (RRID:CVCL_8719), MPNST, and SYO-1 (RRID:CVCL_7146) were obtained from the Sloan Kettering Institute. The alveolar soft parts sarcoma cell line ASPS-1 (RRID:CVCL_S738) was established at the NCI and grown from internal seed stocks. The following established cell lines were purchased from the American Type Culture Collection (ATCC, Manassas, VA): G-401 (ATCC, cat. CRL-1441, RRID:CVCL_0270), SW982 (ATCC, cat. HTB-93, RRID:CVCL_1734), VA-ES-BJ (ATCC, cat. CRL-2138, RRID:CVCL_1785), NCI-H719 (ATCC, cat. CRL-5837, RRID:CVCL_1582), NCI-H196 (ATCC, cat. CRL-5823, RRID:CVCL_1509), NCI-H841 (ATCC, cat. CRL-5845, RRID:CVCL_1595), NCI-H1618 (ATCC, cat. CRL-5879, RRID:CVCL_1480), NCI-H1876 (ATCC, cat. CRL-5902, RRID:CVCL_1503), DMS 114 (ATCC, cat. CRL-2066; RRID:CVCL_1174), NCI-H211 (ATCC, cat. CRL-5824; RRID:CVCL_1529), and SW 1271 (ATCC, cat. CRL-2177, RRID:CVCL_1716). The small cell lung cancer cell line COR-L88 was purchased from Sigma-Aldrich (cat. 92031917-1VL, RRID:CVCL_1141). The non-small cell lung cancer cell lines NCI-H226 (RRID:CVCL_1544) and NCI-H322M (RRID:CVCL_1557) were established at the NCI and grown from internal seed stocks. Pooled donor human umbilical vein endothelial cells (HUVEC, Lonza, cat. CC-2519) and human mesenchymal stem cells (hMSC, Lonza, cat. PT-2501) were purchased from Lonza (Walkersville, MD).
Cell Culture. All cells were maintained in an incubator at 37 degrees C and 5% CO2 with 95% humidity. […]

`Cc1sc2c(c1C)C(c1ccc(Cl)cc1)=NC(CC(=O)Nc1ccc(O)cc1)c1nnc(C)n1-2` (stereo not given) + COc1cc2c(cc1O)CCNC21CSC2c3c(OC(C)=O)c(C)c4c(c3C(COC1=O)N1C(O)C3Cc5cc(C)c(OC)c(O)c5C(C21)N3C)OCO4 was tested, and the IC50 (curve of first compound, second compound 30 pM) was 0.275 µM, the IC50 (curve of first compound, second compound 94.9 pM) was 0.157 µM and the IC50 (curve of first compound, second compound 0.0003 µM) was < 0.00949 µM. For the same compound, the IC50 (curve of first compound, second compound 0.000949 µM) was < 0.00949 µM, the IC50 (curve of first compound, second compound 0.003 µM) was < 0.00949 µM and the viability, T/C (second compound 30 pM, first compound 0.00949 µM) was 86.2%. The viability, T/C (second compound 30 pM, first compound 0.03 µM) was 116%, the viability, T/C (second compound 30 pM, first compound 0.0949 µM) was 93.5% and the viability, T/C (second compound 30 pM, first compound 0.3 µM) was 45.9%. The viability, T/C (second compound 30 pM, first compound 0.949 µM) was 11.1%, the viability, T/C (second compound 30 pM, first compound 3 µM) was 2.15% and the viability, T/C (second compound 94.9 pM, first compound 0.00949 µM) was 72.2%. For the same compound, the viability, T/C (second compound 94.9 pM, first compound 0.03 µM) was 84.4%, the viability, T/C (second compound 94.9 pM, first compound 0.0949 µM) was 63.9% and the viability, T/C (second compound 94.9 pM, first compound 0.3 µM) was 29.9%. It also gave a viability, T/C (second compound 94.9 pM, first compound 0.949 µM) of 3.78%, a viability, T/C (second compound 94.9 pM, first compound 3 µM) of 1.08% and a viability, T/C (second compound 0.0003 µM, first compound 0.00949 µM) of 22.7%. The viability, T/C (second compound 0.0003 µM, first compound 0.03 µM) was 2.53%, the viability, T/C (second compound 0.0003 µM, first compound 0.0949 µM) was 10.2% and the viability, T/C (second compound 0.0003 µM, first compound 0.3 µM) was 11.7%. For the same compound, the viability, T/C (second compound 0.0003 µM, first compound 0.949 µM) was 0.74%, the viability, T/C (second compound 0.0003 µM, first compound 3 µM) was 0.78% and the viability, T/C (second compound 0.000949 µM, first compound 0.00949 µM) was 4.7%. For the same compound, the viability, T/C (second compound 0.000949 µM, first compound 0.03 µM) was 2.6%, the viability, T/C (second compound 0.000949 µM, first compound 0.0949 µM) was 1.78% and the viability, T/C (second compound 0.000949 µM, first compound 0.3 µM) was 0.74%. The viability, T/C (second compound 0.000949 µM, first compound 0.949 µM) was 0.65%, the viability, T/C (second compound 0.000949 µM, first compound 3 µM) was 0.37% and the viability, T/C (second compound 0.003 µM, first compound 0.00949 µM) was 2.16%. The viability, T/C (second compound 0.003 µM, first compound 0.03 µM) was 2.42%, the viability, T/C (second compound 0.003 µM, first compound 0.0949 µM) was 0.82% and the viability, T/C (second compound 0.003 µM, first compound 0.3 µM) was 0.41%. It also gave a viability, T/C (second compound 0.003 µM, first compound 0.949 µM) of 0.26% and a viability, T/C (second compound 0.003 µM, first compound 3 µM) of 0.46%.
`O=C(c1cc(Cc2n[nH]c(=O)c3ccccc23)ccc1F)N1CCN(C(=O)C2CC2)CC1` was tested, and the viability, T/C (compound 0.0949 µM) was 98.1% and 105% and 94.9%, the outcome (compound 0.3 µM) was “inactive” and the viability, T/C (compound 0.3 µM) was 103% and 90.6%. For the same compound, the viability, T/C (compound 0.949 µM) was 83.7% and 96.2% and 98.8%, the viability, T/C (compound 3 µM) was 23.2% and 98.6% and 91% and the viability, T/C (compound 9.49 µM) was 23.5% and 56.3% and 34.1%. For the same compound, the viability, T/C (compound 30 µM) was 25% and 3.78% and 9.4% and the IC50 (curve of compound) was 1.82 µM and 10.9 µM and 6.89 µM.
In the case of `COc1ccc([C@@H](O)c2cc(-c3ncnc4cc(N5CCOCC5)ccc34)c(F)cc2Cl)nn1`, the viability, T/C (compound 0.0316 µM) is reported as 84% and 103% and 101%, the viability, T/C (compound 0.1 µM) is reported as 109% and 97.9% and 84.5% and the viability, T/C (compound 0.316 µM) is reported as 108% and 103% and 83.4%. The viability, T/C (compound 1 µM) was 98.4% and 98.8% and 76%, the viability, T/C (compound 3.16 µM) was 84.1% and 83% and 83.7% and the viability, T/C (compound 10 µM) was 22.8% and 78.7% and 32.8%. The IC50 (curve of compound) was 6 µM and > 10 µM and 6.75 µM.
For `COc1cc2c(cc1O)CCNC21CSC2c3c(OC(C)=O)c(C)c4c(c3C(COC1=O)N1C(O)C3Cc5cc(C)c(OC)c(O)c5C(C21)N3C)OCO4` (stereo not given), the viability, T/C (compound 30 pM) was 95.9% [middle of 10 runs], the viability, T/C (compound 0.0003 µM) was 5.95% [middle of 10 runs] and the viability, T/C (compound 0.000949 µM) was 3.52% [middle of 10 runs]. For the same compound, the viability, T/C (compound 0.003 µM) was 2.99% [middle of 10 runs] and the IC50 (compound alone, run of 12/16/2019) was 0.124 nM [middle of 9 runs].
`Cn1ncnc1[C@H]1c2n[nH]c(=O)c3cc(F)cc(c23)N[C@@H]1c1ccc(F)cc1` was tested, and the viability, T/C (compound 0.00949 µM) was 92.2% and 26.7% and 101%, the viability, T/C (compound 0.03 µM) was 91.8% and 23.5% and 84.8% and the viability, T/C (compound 0.0949 µM) was 88.2% and 22.8% and 79.8%. For the same compound, the viability, T/C (compound 0.3 µM) was 13.2% and 5.31% and 10.7%, the viability, T/C (compound 0.949 µM) was 1.9% and 23.1% and 3.83% and the viability, T/C (compound 3 µM) was 1.81% and 2.3% and 3.2%.
For `CC(C)n1c(=O)n(C)c2cnc3cc(F)c(-c4ccc(OCCCN5CCCCC5)nc4)cc3c21`, the viability, T/C (compound 0.0316 µM) was 92.6% and 97.3% and 82.8%, the outcome (compound 0.1 µM) was “inactive” and the viability, T/C (compound 0.1 µM) was 93.1% and 105%. For the same compound, the viability, T/C (compound 0.316 µM) was 85.2% and 96.6% and 100%, the outcome (compound 1 µM) was “inactive” and the viability, T/C (compound 1 µM) was 80.8% and 86.8%. For the same compound, the viability, T/C (compound 3.16 µM) was 75.5% and 87.7% and 75.1%, the viability, T/C (compound 10 µM) was 58.1% and 89.4% and 54.3% and the IC50 (curve of compound) was > 10 µM.
